The text below walks through data of article PMC10188280 (Inorganic chemistry, 2022).

SMILES strings stand for the structures.

One data set relates to Caco-2 (Colon). Nature of the data set: MTT antiproliferative assay, 72 h. It is filed as cell-based. The note with it: read-out: IC50 values Caco-2 (Colon), 72 h exposure, mean ± SDM, n = 3. (In general: Tetrazolium assays rely on reduction of a dye to a coloured formazan, in cell work by metabolically active cells.)
The subject of the next data set is A2780 (Ovary). Nature of the data set: MTT antiproliferative assay, 72 h. It is filed as cell-based. The following applies: read-out: IC50 values A2780 (Ovary), 72 h exposure, mean ± SDM, n = 3.
The test system of the next data set is MDA-MB-231 (Breast). Nature of the data set: MTT antiproliferative assay, 72 h. It is filed as cell-based. The note with it: read-out: IC50 values MDA-MB-231 (Breast), 72 h exposure, mean ± SDM, n = 3.
The test system of the next data set is HT-29 (Colon). Nature of the data set: MTT antiproliferative assay, 72 h. It is filed as cell-based. The following applies: read-out: IC50 values HT-29 (Colon), 72 h exposure, mean ± SDM, n = 3.
The test system of a further data set is MCF-7 (Breast). Nature of the data set: MTT antiproliferative assay, 72 h. The data set is classed as cell-based. The following applies: read-out: IC50 values MCF-7 (Breast), 72 h exposure, mean ± SDM, n = 3.
The test system of another data set is SK-OV-3 (Ovary). Nature of the data set: MTT antiproliferative assay, 72 h. The data set is classed as cell-based. The following applies: read-out: IC50 values SK-OV-3 (Ovary), 72 h exposure, mean ± SDM, n = 3.
The next data set deals with A2780 cells. Nature of the data set: Cell cycle analysis by flow cytometry. It is filed as cell-based. The note with it: 24 h, lower of two concentrations close to 24-h IC50.
The conditions of data set [1]: unsubstituted (lacking the N4 phenyl) compound; cited from earlier work.

In general, IC50 refers to the point on the concentration scale where inhibition reaches its midpoint. In the case of `CC(=O)N(O)CCCCCNC(=O)CCC(=O)N(O)CCCCCNC(=O)CCC(=O)N(O)CCCCCN` [DFO], the IC50 in the data set on Caco-2 (Colon) was determined as 3.9 ± 0.5 µM; in the data set with A2780 (Ovary), 1.9 ± 0.1 µM; with MDA-MB-231 (Breast), 4.58 ± 0.03 µM; in the data set on HT-29 (Colon), 2.3 ± 0.2 µM; with MCF-7 (Breast) it was 22.5 ± 0.3 µM; with SK-OV-3 (Ovary), 9.5 ± 0.5 µM. Besides, in the data set on A2780 cells, the “cell cycle distribution at the lower concentration” value is on record as “a larger fraction of cells was able to proceed to the S phase but remained unable to reach the G2 phase”.

On to `Oc1ccccc1C=NNC(=S)Nc1ccccc1` [STC1], for which the IC50 in the data set on Caco-2 (Colon) is 7.3 ± 0.8 µM; in the data set on A2780 (Ovary), 1.9 ± 0.1 µM; in the data set on MDA-MB-231 (Breast) it was 4.8 ± 0.2 µM; with HT-29 (Colon), 9.5 ± 0.5 µM; with MCF-7 (Breast), 1.74 ± 0.04 µM; in the data set with SK-OV-3 (Ovary), 2.3 ± 0.2 µM.

As usually defined, the pKa is the negative logarithm of the acid dissociation constant. For `NC(=S)N/N=C/c1ccccc1O` [salicylaldehyde thiosemicarbazone], the pKa in data set [1] is 8.8.
